Data taken from the CheMixHub viscosity set.

Assay: xn = mol fraction of the nth substance listed

C1COCO1 + CC(C)O
303.15 K, 101 kPa
Conditions	viscosity [mPa·s]
x1 = 0.08269	1.212
x1 = 0.1686	0.9776
x1 = 0.258	0.8386
x1 = 0.351	0.7477
x1 = 0.4479	0.6645
x1 = 0.5489	0.6082
x1 = 0.6543	0.6033
x1 = 0.7644	0.5856
x1 = 0.8795	0.5637

CN(C)P(=O)(N(C)C)N(C)C + CC(C)O
303.15 K, 101.3 kPa
Conditions	viscosity [mPa·s]
x1 = 0.0867	1.855
x1 = 0.1008	1.87
x1 = 0.1839	1.937
x1 = 0.2608	1.991
x1 = 0.3481	2.075
x1 = 0.4017	2.136
x1 = 0.5056	2.279
x1 = 0.6052	2.407
x1 = 0.705	2.547
x1 = 0.7928	2.668
x1 = 0.8899	2.791

[Al+3].[Cl-].[Cl-].[Cl-] + CC(N)=O
viscosity [mPa·s], 101 kPa
Conditions	x1 = 0.5	x1 = 0.52	x1 = 0.57	x1 = 0.6
313 K	59.32	47.47	44.48	40.23
323 K	41.01	32.24	30.87	28.7

C1COCO1 + CCC(C)O
viscosity [mPa·s]
Conditions	298.15 K	303.15 K	313.15 K
101 kPa, x1 = 0.1001	–	1.516	–
101 kPa, x1 = 0.2001	–	1.181	–
101 kPa, x1 = 0.3001	–	0.9354	–
101 kPa, x1 = 0.4001	–	0.812	–
101 kPa, x1 = 0.5001	–	0.7072	–
101 kPa, x1 = 0.6001	–	0.6589	–
101 kPa, x1 = 0.7001	–	0.612	–
101 kPa, x1 = 0.8001	–	0.5894	–
101 kPa, x1 = 0.9001	–	0.5588	–
101.33 kPa, x1 = 0.0987	1.997	–	1.29
101.33 kPa, x1 = 0.1966	1.454	–	1.016
101.33 kPa, x1 = 0.2957	1.149	–	0.8449
101.33 kPa, x1 = 0.3994	0.9497	–	0.7262
101.33 kPa, x1 = 0.5008	0.8242	–	0.6486
101.33 kPa, x1 = 0.6023	0.7412	–	0.593
101.33 kPa, x1 = 0.699	0.6698	–	0.55
101.33 kPa, x1 = 0.8014	0.6265	–	0.5218
101.33 kPa, x1 = 0.9023	0.5997	–	0.5052

CC(C)OC(C)C + CCC(C)O
viscosity [mPa·s], 100 kPa
Conditions	x1 = 0.0813	x1 = 0.1604	x1 = 0.2406	x1 = 0.341	x1 = 0.447	x1 = 0.5582	x1 = 0.6505	x1 = 0.7374	x1 = 0.8465	x1 = 0.9346
293.15 K	3	2.51	2.1	1.653	1.304	0.976	0.772	0.623	0.473	0.384
298.15 K	2.51	2.09	1.75	1.395	1.122	0.846	0.678	0.56	0.44	0.365
303.15 K	2.11	1.742	1.453	1.16	0.95	0.75	0.619	0.522	0.414	0.344
308.15 K	1.76	1.48	1.241	1.004	0.834	0.67	0.558	0.473	0.388	0.325
313.15 K	1.49	1.25	1.06	0.87	0.73	0.596	0.51	0.44	0.361	0.307
318.15 K	1.28	1.074	0.92	0.769	0.65	0.535	0.46	0.4	0.333	0.29
323.15 K	1.1	0.931	0.801	0.67	0.575	0.48	0.416	0.367	0.31	0.27

CC(=O)c1ccccc1 + CCCC(C)O
298.15 K, 101 kPa
Conditions	viscosity [mPa·s]
x1 = 0.2502	1.875
x1 = 0.7547	1.605

[Al+3].[Cl-].[Cl-].[Cl-] + CCCC(N)=O
viscosity [mPa·s], 101 kPa
Conditions	x1 = 0.5	x1 = 0.52	x1 = 0.57	x1 = 0.6	x1 = 0.63
313 K	28.41	23.88	23.18	24.75	27.31
323 K	20.42	17.69	17.62	17.72	19.85

CCCCCCCCC + CCCCCC
298.15 K, 101.33 kPa
Conditions	viscosity [mPa·s]
x2 = 0.1073	0.6111
x2 = 0.21	0.5693
x2 = 0.2873	0.5367
x2 = 0.4024	0.5017
x2 = 0.5044	0.4527
x2 = 0.6074	0.42
x2 = 0.7035	0.3874
x2 = 0.804	0.3547
x2 = 0.9035	0.3272

CCC(O)CC + CCCCCCC
101 kPa
Conditions	viscosity [mPa·s]
293.4 K, x1 = 0.201	0.531
294 K, x1 = 0.026	0.466
294.1 K, x1 = 0.101	0.489
295.1 K, x1 = 0.5	0.734

CCCCCCCCC + CCCCCCC
298.15 K, 101.33 kPa
Conditions	viscosity [mPa·s]
x2 = 0.1102	0.6128
x2 = 0.2046	0.5921
x2 = 0.3052	0.562
x2 = 0.407	0.5372
x2 = 0.5092	0.5104
x2 = 0.6073	0.4838
x2 = 0.7071	0.4588
x2 = 0.8027	0.4312
x2 = 0.8996	0.4081

CCCCCCCC/C=C\CCCCCCCC(=O)OCC(COC(=O)CCCCCCC/C=C\CCCCCCCC)OC(=O)CCCCCCC/C=C\CCCCCCCC + CCCCCCCC
viscosity [mPa·s], 101.33 kPa
Conditions	x1 = 0.000908	x1 = 0.001916	x1 = 0.004907	x1 = 0.0101	x1 = 0.02609	x1 = 0.03555	x1 = 0.05997	x1 = 0.08297
293.15 K	0.5531	0.5668	0.6068	0.6753	0.9348	1.11	1.638	2.268
298.15 K	0.5204	0.5329	0.5699	0.6331	0.8701	1.03	1.505	2.064
303.15 K	0.4903	0.502	0.536	0.5947	0.8126	0.9579	1.388	1.894
308.15 K	0.4628	0.4737	0.5055	0.5596	0.7605	0.8936	1.284	1.741
313.15 K	0.4377	0.4478	0.4774	0.5277	0.7134	0.8357	1.191	1.606

CCCCCCCCC + CCCCCCCC
298.15 K, 101.33 kPa
Conditions	viscosity [mPa·s]
x2 = 0.1092	0.631
x2 = 0.2071	0.6264
x2 = 0.3038	0.6069
x2 = 0.4058	0.5951
x2 = 0.5051	0.5768
x2 = 0.6076	0.5586
x2 = 0.7044	0.5497
x2 = 0.8047	0.5318
x2 = 0.9025	0.5116
